Tests used:
the skin = experiment: use of the cosmetic applied onto the skin (feeling in use, evaporation of the HFE, skin moisture); assay type: in vivo; conditions: after the cosmetic was applied onto the skin
Experimental: 50% by weight of a perfluoropolyether (FOMBLIN HC/04 manufactured by Audimont) (viscosity at 25° C.: 70 mPa·s) was mixed with 50% by weight of C4F9OCH3 (HFE A) (viscosity at 25° C.: 0.6 mPa·s) under stirring to give a solution. Thereafter, a very small amount of a perfume was added to give a non-aqueous lotion. This non-aqueous lotion was felt very smooth in use.
The powder ingredients in the formulation shown in Table 2 were mixed and ground with an atomizer and then transferred to a Henschel mixer. Then FOMBLIN HC/04 was added thereto, and the mixture was uniformly mixed. The mixture was dispersed in […] (HFE B) (viscosity at 25° C.: 0.7 mPa·s) to give a solvent dispersion-type foundation. This solvent dispersion-type foundation was felt very smooth in use.
The ingredients (1) to (8) in the formulation shown in Table 3 were mixed and ground in a colloid mill. After this mixture was heated at 80° C., the ingredients (9) to (13) which had been heated and mixed at 80° C. were added thereto and emulsified uniformly in a homomixer. The ingredient (14) was added to this emulsion, further emulsified uniformly in a homomixer, and cooled to room temperature to give a liquid foundation. This liquid foundation was felt very smooth in use. […]

[1] = viscosity by Brookfield type viscometer or capillary tube viscometer; assay type: physicochemical
Experimental: The viscosity of the fluorine-containing oil is e.g. at least 5 mPa·s, particularly 10 to 10,000 mPa·s. The viscosity of the fluorine oil (and the HFE) was measured by a Brookfield type viscometer or a capillary tube viscometer.

Compound | evaporation of the HFE (the skin) | viscosity at 25° C. [1] [mPa·s]
CCOC(F)(F)C(F)(F)C(F)(F)C(F)(F)F [HFE B, C4F9OC2H5] | evaporated rapidly | 0.7
FC(F)C(F)(F)OCC1(COCC(COC(F)(F)C(F)F)(COC(F)(F)C(F)F)COC(F)(F)C(F)F)COC1 [chemical formula B] | – | 40
C4F9OCH3 [HFE A] | evaporated rapidly | 0.6

From US20020182240A1, “Cosmetics with hydrofluoroether (HFE)” (Daikin Industries, priority 1997, published 2002)
